{"source": "ChEMBL document CHEMBL1201862", "about": "“PubChem BioAssay data set” (2004)", "experiment_in_all_cases": "DTP human tumour cell line panel, 48 h", "key": {"A549": {"test_system": "A549"}, "OVCAR-5": {"test_system": "OVCAR-5"}, "SF-295": {"test_system": "SF-295"}, "NCI-H522": {"test_system": "NCI-H522"}, "HOP-62": {"test_system": "HOP-62"}, "PC-3": {"test_system": "PC-3"}, "CAKI-1": {"test_system": "CAKI-1"}, "CCRF-CEM": {"test_system": "CCRF-CEM"}, "SN12C": {"test_system": "SN12C"}, "SK-MEL-5": {"test_system": "SK-MEL-5"}, "M14": {"test_system": "M14"}, "MDA-MB-231": {"test_system": "MDA-MB-231"}, "OVCAR-4": {"test_system": "OVCAR-4"}, "SK-MEL-2": {"test_system": "SK-MEL-2"}, "TK-10": {"test_system": "TK-10"}, "K562": {"test_system": "K562"}, "ACHN": {"test_system": "ACHN"}, "UACC-257": {"test_system": "UACC-257"}, "UO-31": {"test_system": "UO-31"}, "SK-MEL-28": {"test_system": "SK-MEL-28"}, "KM12": {"test_system": "KM12"}, "U-251": {"test_system": "U-251"}, "COLO 205": {"test_system": "COLO 205"}, "IGROV-1": {"test_system": "IGROV-1"}, "HCT-116": {"test_system": "HCT-116"}, "DU-145": {"test_system": "DU-145"}, "MDA-N": {"test_system": "MDA-N"}, "EKVX": {"test_system": "EKVX"}, "Hs-578T": {"test_system": "Hs-578T"}, "NCI-H460": {"test_system": "NCI-H460"}, "MOLT-4": {"test_system": "MOLT-4"}, "NCI/ADR-RES": {"test_system": "NCI/ADR-RES"}, "HCT-15": {"test_system": "HCT-15"}, "A498": {"test_system": "A498"}, "SK-OV-3": {"test_system": "SK-OV-3"}, "SF-539": {"test_system": "SF-539"}, "RXF 393": {"test_system": "RXF 393"}, "MCF7": {"test_system": "MCF7"}, "HCC 2998": {"test_system": "HCC 2998"}, "Malme-3M": {"test_system": "Malme-3M"}, "HT-29": {"test_system": "HT-29"}, "NCI-H23": {"test_system": "NCI-H23"}, "MDA-MB-435": {"test_system": "MDA-MB-435"}, "OVCAR-8": {"test_system": "OVCAR-8"}, "BT-549": {"test_system": "BT-549"}, "RPMI-8226": {"test_system": "RPMI-8226"}, "786-0": {"test_system": "786-0"}, "SNB-75": {"test_system": "SNB-75"}, "NCI-H226": {"test_system": "NCI-H226"}, "T47D": {"test_system": "T47D"}, "SW-620": {"test_system": "SW-620"}, "SNB-19": {"test_system": "SNB-19"}, "OVCAR-3": {"test_system": "OVCAR-3"}, "HOP-92": {"test_system": "HOP-92"}, "SF-268": {"test_system": "SF-268"}}, "note": "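Assay format: 96-well plates, 48-hour exposure. Here, GI50 denotes the concentration required for 50% inhibition of growth.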 Active and inactive are the calls of the source. No stated cut-off is given here; in the data, active = GI50 up to about 1.1 µM and inactive = higher.", "data": [{"smiles": "C=CC(O)(CBr)CCC(Br)C(C)(C)Cl", "note": "(stereo not given)", "values": [{"measurement": "GI50", "setting": "A549", "result": "> 10 µM (inactive)"}, {"measurement": "GI50", "setting": "OVCAR-5", "result": "> 10 µM (inactive)"}, {"measurement": "GI50", "setting": "SF-295", "result": "> 10 µM (inactive)"}, {"measurement": "GI50", "setting": "NCI-H522", "result": "> 10 µM (inactive)"}, {"measurement": "GI50", "setting": "HOP-62", "result": "> 10 µM (inactive)"}, {"measurement": "GI50", "setting": "PC-3", "result": "> 10 µM (inactive)"}, {"measurement": "GI50", "setting": "CAKI-1", "result": "> 10 µM (inactive)"}, {"measurement": "GI50", "setting": "CCRF-CEM", "result": "> 10 µM (inactive)"}, {"measurement": "GI50", "setting": "SN12C", "result": "> 10 µM (inactive)"}, {"measurement": "GI50", "setting": "SK-MEL-5", "result": "> 10 µM (inactive)"}, {"measurement": "GI50", "setting": "M14", "result": "> 10 µM (inactive)"}, {"measurement": "GI50", "setting": "MDA-MB-231", "result": "> 10 µM (inactive)"}, {"measurement": "GI50", "setting": "OVCAR-4", "result": "> 10 µM (inactive)"}, {"measurement": "GI50", "setting": "SK-MEL-2", "result": "> 10 µM (inactive)"}, {"measurement": "GI50", "setting": "TK-10", "result": "> 10 µM (inactive)"}, {"measurement": "GI50", "setting": "K562", "result": "> 10 µM (inactive)"}, {"measurement": "GI50", "setting": "ACHN", "result": "> 10 µM (inactive)"}, {"measurement": "GI50", "setting": "UACC-257", "result": "> 10 µM (inactive)"}, {"measurement": "GI50", "setting": "UO-31", "result": "> 10 µM (inactive)"}, {"measurement": "GI50", "setting": "SK-MEL-28", "result": "> 10 µM (inactive)"}, {"measurement": "GI50", "setting": "KM12", "result": "> 10 µM (inactive)"}, {"measurement": "GI50", "setting": "U-251", "result": "> 10 µM (inactive)"}, {"measurement": "GI50", "setting": "COLO 205", "result": "> 10 µM (inactive)"}, {"measurement": "GI50", "setting": "IGROV-1", "result": "> 10 µM (inactive)"}, {"measurement": "GI50", "setting": "HCT-116", "result": "> 10 µM (inactive)"}, {"measurement": "GI50", "setting": "DU-145", "result": "> 10 µM (inactive)"}, {"measurement": "GI50", "setting": "MDA-N", "result": "> 10 µM (inactive)"}, {"measurement": "GI50", "setting": "EKVX", "result": "> 10 µM (inactive)"}, {"measurement": "GI50", "setting": "Hs-578T", "result": "> 10 µM (inactive)"}, {"measurement": "GI50", "setting": "NCI-H460", "result": "> 10 µM (inactive)"}, {"measurement": "GI50", "setting": "MOLT-4", "result": "> 10 µM (inactive)"}, {"measurement": "GI50", "setting": "NCI/ADR-RES", "result": "> 10 µM (inactive)"}, {"measurement": "GI50", "setting": "HCT-15", "result": "> 10", "unit": "µM"}, {"measurement": "GI50", "setting": "A498", "result": "> 10 µM (inactive)"}, {"measurement": "GI50", "setting": "SK-OV-3", "result": "> 10 µM (inactive)"}, {"measurement": "GI50", "setting": "SF-539", "result": "> 10 µM (inactive)"}, {"measurement": "GI50", "setting": "RXF 393", "result": "> 10 µM (inactive)"}, {"measurement": "GI50", "setting": "MCF7", "result": "> 10 µM (inactive)"}, {"measurement": "GI50", "setting": "HCC 2998", "result": "> 10 µM (inactive)"}, {"measurement": "GI50", "setting": "Malme-3M", "result": "> 10 µM (inactive)"}, {"measurement": "GI50", "setting": "HT-29", "result": "> 10 µM (inactive)"}, {"measurement": "GI50", "setting": "NCI-H23", "result": "> 10 µM (inactive)"}, {"measurement": "GI50", "setting": "MDA-MB-435", "result": "> 10 µM (inactive)"}, {"measurement": "GI50", "setting": "OVCAR-8", "result": "> 10 µM (inactive)"}, {"measurement": "GI50", "setting": "BT-549", "result": "> 10 µM (inactive)"}, {"measurement": "GI50", "setting": "RPMI-8226", "result": "> 10 µM (inactive)"}, {"measurement": "GI50", "setting": "786-0", "result": "> 10 µM (inactive)"}, {"measurement": "GI50", "setting": "SNB-75", "result": "> 10 µM (inactive)"}, {"measurement": "GI50", "setting": "NCI-H226", "result": "> 10 µM (inactive)"}, {"measurement": "GI50", "setting": "T47D", "result": "> 10 µM (inactive)"}, {"measurement": "GI50", "setting": "SW-620", "result": "> 10 µM (inactive)"}, {"measurement": "GI50", "setting": "SNB-19", "result": "> 10 µM (inactive)"}, {"measurement": "GI50", "setting": "OVCAR-3", "result": "> 10 µM (inactive)"}, {"measurement": "GI50", "setting": "HOP-92", "result": "> 10 µM (inactive)"}, {"measurement": "GI50", "setting": "SF-268", "result": "> 10 µM (inactive)"}]}]}
